Reference: patent US20230110899A1, “NOVEL COMPOSITIONS FOR TREATMENT OF CORONAVIRUS DISEASE” (priority 2020, published 2023)
Several values for one entry are separate records, joined by “and”; a condition that tells them apart may be missing. Equal values may be shown once.

Legend:
Dengue infection = settings: lethal mouse model; cited from earlier work
[1] = target: T1, cytosolic phospholipases (cPLA2) (Homo sapiens, UniProt P47712); settings: cited from earlier work
T1 sequence (P47712 1-749): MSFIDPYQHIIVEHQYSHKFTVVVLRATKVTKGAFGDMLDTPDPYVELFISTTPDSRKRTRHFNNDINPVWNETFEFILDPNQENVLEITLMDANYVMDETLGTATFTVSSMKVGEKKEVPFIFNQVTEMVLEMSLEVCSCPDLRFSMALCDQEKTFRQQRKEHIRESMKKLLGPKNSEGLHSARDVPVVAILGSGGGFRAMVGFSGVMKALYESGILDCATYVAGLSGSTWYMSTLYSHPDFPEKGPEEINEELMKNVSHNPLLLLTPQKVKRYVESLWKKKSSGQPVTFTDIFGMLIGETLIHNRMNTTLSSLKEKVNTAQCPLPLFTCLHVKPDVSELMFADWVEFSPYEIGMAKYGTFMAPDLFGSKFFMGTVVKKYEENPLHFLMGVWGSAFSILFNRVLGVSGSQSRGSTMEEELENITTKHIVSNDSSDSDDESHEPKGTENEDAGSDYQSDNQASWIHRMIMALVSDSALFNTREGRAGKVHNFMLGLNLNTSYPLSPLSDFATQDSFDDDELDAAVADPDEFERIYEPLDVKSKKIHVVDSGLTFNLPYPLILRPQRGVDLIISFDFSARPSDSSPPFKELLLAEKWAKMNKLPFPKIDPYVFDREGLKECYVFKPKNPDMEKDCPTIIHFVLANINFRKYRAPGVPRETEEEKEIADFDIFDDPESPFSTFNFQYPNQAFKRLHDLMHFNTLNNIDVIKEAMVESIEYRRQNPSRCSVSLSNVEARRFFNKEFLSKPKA

[2] = tested on: LPS induced ARDS mouse model; assay: LPS induced ARDS mouse model (tracheal instillation of 60 μg of LPS), oral and inhaled; format: in vivo, C57BL/6 mice; settings: for blood oxygen saturation (SpO2): 72 h; for blood reticulocyte count: vs LPS negative control
[3] = Plasma and lung fenretinide exposure, oral and inhaled (Example 3); format: in vivo, C57BL/6 mice; settings: nebulization of 0.65 mg/mL for 30 or 60 min; calculated, confirmed by analysis of lung tissue
Zika virus = settings: in vitro, by targeting nonstructural protein 5; cited from earlier work
[4] = tested on: adult CF patients experiencing pulmonary exacerbation; settings: cited from earlier work
allergen-sensitized mice = settings: mouse, in vivo; cited from earlier work
Dengue = settings: cited from earlier work
Spinal Cord Injury (SCI) = settings: oral administration; cited from earlier work
[5] = tested on: MERS-CoV clinical isolate; settings: viral spike (S) protein expression, infected Vero cells, IFA; read-out: 50% inhibitory concentration (IC50); cited from earlier work
ERK1/2 = settings: macrophages pretreated prior to S. suis infection, vs nontreated infected macrophages; cited from earlier work
Pseudomonas aeruginosa = settings: Cftr.KO mice; cited from earlier work
Streptococcus suis = settings: acute S. suis infection; cited from earlier work
SARS-CoV-2 coronavirus = assay: SARS-CoV-2 plaque reduction assay in Vero E6 cells; format: cell-based; settings: for Mean PFU/well: n=3
Vero E6 cells = settings: up to 40 μM concentrations
[6] = inhaled fenretinide 1.8 μg/kg, 72 hours
[7] = inhaled fenretinide 3.6 μg/kg, 72 hours

For CC1=C(/C=C/C(C)=C/C=C/C(C)=C/C(=O)Nc2ccc(O)cc2)C(C)(C)CCC1 [Fenretinide, 4-hydroxyphenyl retinamide], the “protection against Dengue infection” value (Dengue infection) is given as “can protect against Dengue infection”, the “activity of cytosolic phospholipases (cPLA2)” value [1] is given as “inhibits the activity of cytosolic phospholipases” and the “blood oxygen saturation (SpO2)” value ([2]; inhaled fenretinide 1.8 μg/kg) is given as “partially, but significantly, alleviated the reduction of blood oxygen saturation”. The lung protein concentration [2, 6] was “reduced the lung protein concentration”, the blood reticulocyte count [2, 6] was “significantly increased reticulocyte counts” and the “myeloperoxidase (MPO) activity in the BALF” value ([2]; inhaled fenretinide 1.8 μg/kg, 72 hours, statistically significant vs negative control) was “reduced MPO activity”. The “blood oxygen saturation (SpO2)” value ([2]; inhaled fenretinide 3.6 μg/kg) was “partially, but significantly, alleviated the reduction of blood oxygen saturation”, the lung protein concentration [2, 7] was “reduced the lung protein concentration” and the blood reticulocyte count [2, 7] was “significantly increased reticulocyte counts”. The “effective fenretinide dose delivered to the lungs (local lung concentration)” value [3] was 1 to 3 µM, the “activity against Zika virus” value (Zika virus) was “potent activity” and the “plasma levels of IL-6, IL-8, IL-10 and neutrophils count” value ([4]; at the onset of the PEx episode) was “appeared to improve”. The lipidomic markers ([4]; subgroup with pulmonary exacerbation (PEx)) was “normalized the lipidomic markers in a dose-response manner”, the “infiltration of inflammatory cells to the airways” value (allergen-sensitized mice) was “complete block of infiltration of inflammatory cells to the airways” and the “antiviral activity against Dengue fever disease” value (Dengue) was “potent antiviral activity”. For the same compound, the locomotor recovery (Spinal Cord Injury (SCI)) was “improved locomotor recovery”, the IC50 [5] was 2800 nM and the ERK1/2 activation (ERK1/2) was “significant reduction in ERK1/2 activation”. For the same compound, the “pulmonary load of Pseudomonas aeruginosa” value (Pseudomonas aeruginosa) was “significant decrease in the pulmonary load of Pseudomonas aeruginosa”, the survival (Streptococcus suis) was “significantly improved their survival” and the IC50 (SARS-CoV-2 coronavirus; Severe acute respiratory syndrome coronavirus 2, Vero C1008, linear regression analysis (FIG. 1), R2=0.92, read-out: IC50, 50% inhibition of virus survival) was 1570 nM. The “% survival” value (SARS-CoV-2 coronavirus; fenretinide 0.625 μM) was 80.5%, the “Plaque forming unit counts, Wells 1-3 (individual counts/well)” value (SARS-CoV-2 coronavirus; fenretinide 0.625 μM) was 21 and 19 and 22 and the “Mean PFU/well” value (SARS-CoV-2 coronavirus; fenretinide 0.625 μM) was 20.7 PFU/well. For the same compound, the “% survival” value (SARS-CoV-2 coronavirus; fenretinide 1.25 μM) was 75.3%, the “Plaque forming unit counts, Wells 1-3 (individual counts/well)” value (SARS-CoV-2 coronavirus; fenretinide 1.25 μM) was 14 and 31 and 13 and the “Mean PFU/well” value (SARS-CoV-2 coronavirus; fenretinide 1.25 μM) was 19.3 PFU/well. For the same compound, the “% survival” value (SARS-CoV-2 coronavirus; fenretinide 2.5 μM) was 24.7%, the “Plaque forming unit counts, Wells 1-3 (individual counts/well)” value (SARS-CoV-2 coronavirus; fenretinide 2.5 μM) was 6 and 3 and 10 and the “Mean PFU/well” value (SARS-CoV-2 coronavirus; fenretinide 2.5 μM) was 6.3 PFU/well. For the same compound, the “% survival” value (SARS-CoV-2 coronavirus; fenretinide 5 μM) was 0.0%, the “Plaque forming unit counts, Wells 1-3 (individual counts/well)” value (SARS-CoV-2 coronavirus; fenretinide 5 μM) was 0 and the “Mean PFU/well” value (SARS-CoV-2 coronavirus; fenretinide 5 μM) was 0.0 PFU/well.
With CCC(CC)COC(=O)[C@H](C)N[P@](=O)(OC[C@H]1O[C@@](C#N)(c2ccc3c(N)ncnn23)[C@H](O)[C@@H]1O)Oc1ccccc1 [Remdesivir] the cytopathic effect (Vero E6 cells) was “No cytopathic effect”, the “% virus survival” value (SARS-CoV-2 coronavirus; remdesivir 0.625 μM) was 90.9% and the “Plaque forming unit counts, Wells 1-3 (individual counts/well)” value (SARS-CoV-2 coronavirus; remdesivir 0.625 μM) was 25 (2×) and 20. The “Mean PFU/well” value (SARS-CoV-2 coronavirus; remdesivir 0.625 μM) was 23.3 PFU/well, the “% virus survival” value (SARS-CoV-2 coronavirus; remdesivir 1.25 μM) was 42.9% and the “Plaque forming unit counts, Wells 1-3 (individual counts/well)” value (SARS-CoV-2 coronavirus; remdesivir 1.25 μM) was 10 and 11 and 12. For the same compound, the “Mean PFU/well” value (SARS-CoV-2 coronavirus; remdesivir 1.25 μM) was 11.0 PFU/well, the “Plaque forming unit counts, Wells 1-3 (individual counts/well)” value (SARS-CoV-2 coronavirus; remdesivir 2.5 μM) was 5 (2×) and 2 and the “Mean PFU/well” value (SARS-CoV-2 coronavirus; remdesivir 2.5 μM) was 4.0 PFU/well. The “% virus survival” value (SARS-CoV-2 coronavirus; remdesivir 5 μM) was 2.6%, the “Plaque forming unit counts, Wells 1-3 (individual counts/well)” value (SARS-CoV-2 coronavirus; remdesivir 5 μM) was 1 (2×) and 0 and the “Mean PFU/well” value (SARS-CoV-2 coronavirus; remdesivir 5 μM) was 0.7 PFU/well. The “% virus survival” value (SARS-CoV-2 coronavirus; remdesivir 10 μM) was 0%, the “Plaque forming unit counts, Wells 1-3 (individual counts/well)” value (SARS-CoV-2 coronavirus; remdesivir 10 μM) was 0 and the “Mean PFU/well” value (SARS-CoV-2 coronavirus; remdesivir 10 μM) was 0.0 PFU/well. For the same compound, the “% virus survival” value (SARS-CoV-2 coronavirus; remdesivir 20 μM) was 0.0%, the “Plaque forming unit counts, Wells 1-3 (individual counts/well)” value (SARS-CoV-2 coronavirus; remdesivir 20 μM) was 0 and the “Mean PFU/well” value (SARS-CoV-2 coronavirus; remdesivir 20 μM) was 0.0 PFU/well. For the same compound, the “% virus survival” value (SARS-CoV-2 coronavirus; remdesivir 40 μM) was 0.0%, the “Plaque forming unit counts, Wells 1-3 (individual counts/well)” value (SARS-CoV-2 coronavirus; remdesivir 40 μM) was 0 and the “Mean PFU/well” value (SARS-CoV-2 coronavirus; remdesivir 40 μM) was 0.0 PFU/well.
